Measurements taken from ChEMBL document CHEMBL1201862, “PubChem BioAssay data set” (2004).
Calls of active or inactive are those of the source.

Tests used:
[1] = mitochondrial function rescue without frataxin homolog – Friedreich's ataxia, plus single-dose screen, dose response (AID 1465); type: functional;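 also: yeast depleted of Yfh1p frataxin homolog grown on glycerol needing respiration; WST-1 tetrazolium dye reduction as measure of cellular dehydrogenase metabolic activity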
[2] = target: T1, Ubiquitin-conjugating enzyme E2 N (Homo sapiens, UniProt P61088); type: functional
T1 sequence (P61088 whole entry): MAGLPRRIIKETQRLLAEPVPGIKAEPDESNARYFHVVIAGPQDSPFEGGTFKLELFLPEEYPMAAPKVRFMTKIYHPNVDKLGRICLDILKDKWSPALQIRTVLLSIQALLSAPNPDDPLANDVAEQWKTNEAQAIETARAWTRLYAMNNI

[3] = target: T2, Bcl-2-related protein A1 (Mus musculus, UniProt Q07440); type: functional;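 also: confirmatory dose–response counterscreen on Bfl-1, used to check hits from a UBC13 polyubiquitin inhibitor campaign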
T2 sequence (Q07440 whole entry): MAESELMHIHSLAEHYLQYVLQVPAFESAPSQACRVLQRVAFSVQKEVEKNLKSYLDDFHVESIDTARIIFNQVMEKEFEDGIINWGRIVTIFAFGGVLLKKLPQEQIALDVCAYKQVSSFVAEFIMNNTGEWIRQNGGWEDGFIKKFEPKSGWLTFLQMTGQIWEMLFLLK

[4] = target: T1, Ubiquitin-conjugating enzyme E2 N; type: functional; remark: listed apart in the source
[5] = target: T3, Bcl-2-like protein 10 (Homo sapiens, UniProt Q9HD36); assay: Concentration-response of Bcl-B inhibitors by biochemical FP with TR3 (AID 1243); type: functional
T3 sequence (Q9HD36 whole entry): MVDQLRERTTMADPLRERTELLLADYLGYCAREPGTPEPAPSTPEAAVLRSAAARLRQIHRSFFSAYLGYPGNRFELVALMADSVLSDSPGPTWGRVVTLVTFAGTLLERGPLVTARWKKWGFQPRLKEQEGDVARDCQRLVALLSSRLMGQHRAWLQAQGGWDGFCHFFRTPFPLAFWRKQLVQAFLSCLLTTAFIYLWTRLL

[6] = target: T4, Hexokinase HKDC1 (Homo sapiens, UniProt Q2TB90); assay: inhibition of HKDC1 glucose phosphorylation – biochemical, W721R variant, dose response (AID 504729); type: functional
T4 sequence (Q2TB90 whole entry): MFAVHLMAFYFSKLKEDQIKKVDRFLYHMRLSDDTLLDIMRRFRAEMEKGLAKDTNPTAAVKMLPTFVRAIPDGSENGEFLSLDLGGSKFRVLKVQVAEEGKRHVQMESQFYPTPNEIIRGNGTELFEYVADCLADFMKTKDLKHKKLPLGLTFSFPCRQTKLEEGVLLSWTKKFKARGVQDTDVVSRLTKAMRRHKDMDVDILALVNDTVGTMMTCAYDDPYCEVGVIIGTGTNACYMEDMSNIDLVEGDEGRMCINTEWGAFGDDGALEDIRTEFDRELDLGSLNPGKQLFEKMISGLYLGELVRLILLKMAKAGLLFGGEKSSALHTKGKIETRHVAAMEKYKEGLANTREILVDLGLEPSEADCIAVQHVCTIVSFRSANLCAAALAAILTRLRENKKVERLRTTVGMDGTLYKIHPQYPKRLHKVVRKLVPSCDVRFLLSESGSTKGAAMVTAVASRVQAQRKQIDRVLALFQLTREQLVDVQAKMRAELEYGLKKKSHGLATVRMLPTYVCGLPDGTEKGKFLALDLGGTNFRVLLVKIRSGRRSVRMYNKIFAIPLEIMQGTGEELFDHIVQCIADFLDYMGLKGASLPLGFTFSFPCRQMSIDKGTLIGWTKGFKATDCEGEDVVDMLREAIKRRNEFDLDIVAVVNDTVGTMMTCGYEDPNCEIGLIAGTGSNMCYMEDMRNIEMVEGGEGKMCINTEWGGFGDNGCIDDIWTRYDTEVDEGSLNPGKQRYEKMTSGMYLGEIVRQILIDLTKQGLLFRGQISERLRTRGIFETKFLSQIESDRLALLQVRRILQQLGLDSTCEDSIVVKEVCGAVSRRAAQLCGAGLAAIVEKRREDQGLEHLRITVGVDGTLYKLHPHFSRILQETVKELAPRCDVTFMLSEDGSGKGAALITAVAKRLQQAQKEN

[7] = fluconazole-exposed Candida albicans growth modulators – fluorescence, retest, confirmation (AID 2467); type: functional, cell-based
[8] = target: Bcl-2-like protein 1 (Homo sapiens, UniProt Q07817); assay: blockers of BCLXL peptide binding – biochemical, fluorescence polarization, 1536-well, selectivity assay for MCL1 inhibitor project, dose response (AID 2218)
Chain of Bcl-2-like protein 1 (Q07817 whole entry): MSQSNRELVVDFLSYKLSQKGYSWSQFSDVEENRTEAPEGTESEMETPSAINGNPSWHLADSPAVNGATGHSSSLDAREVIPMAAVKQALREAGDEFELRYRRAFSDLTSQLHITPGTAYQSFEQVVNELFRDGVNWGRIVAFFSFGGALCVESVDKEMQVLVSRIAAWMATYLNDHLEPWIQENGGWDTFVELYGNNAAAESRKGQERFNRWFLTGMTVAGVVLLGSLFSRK

[9] = NIH-3T3 fibroblast cytotoxicity, dose response, cytotoxicity control, cell-based, fluorescence, Alamar Blue, secondary assay (AID 2327); type: functional;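 also: NIH-3T3 mouse fibroblasts cultured with fluconazole at 8 µg/mL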
[10] = target: Heat shock protein HSP 90-alpha (Homo sapiens, UniProt P07900); type: functional, organism-based
[11] = target: Induced myeloid leukemia cell differentiation protein Mcl-1 (Homo sapiens, UniProt Q07820); assay: blockers of MCL1 binding to BIM peptide – biochemical, fluorescence polarization, BIM-BH3 peptide, 1536-well, dose response (AID 2217)
Chain of Induced myeloid leukemia cell differentiation protein Mcl-1 (Q07820 whole entry): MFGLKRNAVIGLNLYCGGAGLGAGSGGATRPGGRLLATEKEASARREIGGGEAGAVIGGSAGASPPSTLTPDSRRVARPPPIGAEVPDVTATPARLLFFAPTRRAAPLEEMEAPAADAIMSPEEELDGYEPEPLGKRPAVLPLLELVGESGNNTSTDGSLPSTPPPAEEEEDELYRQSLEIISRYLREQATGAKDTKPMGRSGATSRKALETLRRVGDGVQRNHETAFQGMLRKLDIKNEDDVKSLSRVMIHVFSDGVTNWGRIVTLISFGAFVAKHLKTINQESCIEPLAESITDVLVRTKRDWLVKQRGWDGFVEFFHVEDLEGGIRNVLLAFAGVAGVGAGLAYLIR

[12] = general cell-killing toxicity readout – plate reader, dry powder samples, cytotoxicity control for PAX8 inhibitor project, dose response (AID 743021); type: functional, cell-based
[13] = Luminescent dose response cell-based high throughput screening assay for inhibitors of the Janus kinase 2 mutant JAK2V617F. [Related pubchem assays: 1446 (Primary screen.), 1521 (Confirmation assay.), 1486 (Counter screen.)]; type: functional
[14] = target: Paired box protein Pax-8 (Homo sapiens, UniProt Q06710); assay: PAX8 transcriptional activity inhibition in RMG-I – RMG-I cells, luciferase, cherry-pick, dose response (AID 687027); type: functional, cell-based;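 also: luciferase reporter driven by Pax8 target thyroperoxidase promoter measured by SteadyGlo luminescence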
Chain of Paired box protein Pax-8 (Q06710 whole entry): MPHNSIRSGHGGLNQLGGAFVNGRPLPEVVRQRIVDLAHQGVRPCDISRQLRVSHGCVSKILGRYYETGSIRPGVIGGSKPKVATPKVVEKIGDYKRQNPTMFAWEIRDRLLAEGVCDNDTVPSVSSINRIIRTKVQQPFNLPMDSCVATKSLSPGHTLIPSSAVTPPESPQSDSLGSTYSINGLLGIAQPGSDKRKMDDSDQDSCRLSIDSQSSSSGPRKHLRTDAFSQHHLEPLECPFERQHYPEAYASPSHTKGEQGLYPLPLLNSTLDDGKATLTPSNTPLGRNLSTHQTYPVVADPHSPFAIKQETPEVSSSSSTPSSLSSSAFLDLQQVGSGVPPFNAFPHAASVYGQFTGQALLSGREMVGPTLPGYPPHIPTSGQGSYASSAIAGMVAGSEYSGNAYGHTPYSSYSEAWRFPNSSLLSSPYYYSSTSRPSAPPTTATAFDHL

Q: For `COc1ccc(C(=O)NC(=S)NNC(=O)c2ccc(NC(C)=O)cc2)cc1Br`, which EC50 [1] is on record?
A: > 100 µM (active)

Q: What about the IC50 [2] of the same molecule?
A: 18.1 µM (active)

Q: What about the IC50 [3] of the same molecule?
A: > 20 µM (inactive)

Q: What about the IC50 [4] of the same molecule?
A: 18.3 µM (active)

Q: For `CCOc1ccc(/C=C(/NC(=O)c2ccc(C)cc2)C(=O)NCCO)cc1`, which EC50 [5] is on record?
A: 13.2 µM (active)

Q: Which results are given for `Cc1ccc(/N=C/c2cc(Cc3ccccc3Cl)cc([N+](=O)[O-])c2O)c(O)c1`?
A: IC50 [6]: 28.5 µM (inactive); EC50 [7]: 1.78 µM (active); IC50 [8]: 7.22 µM (active); EC50 [9]: 11.3 µM (active); AC50 [10]: 1.61 µM (active); IC50 [11]: 9.13 µM (active)

Q: Which results are given for `O=C(CCl)/N=c1\sccn1Cc1cccc2ccccc12`?
A: AC50 [12]: 1.66 µM (active); IC50 [13]: 0.224 µM (active); AC50 [14]: 0.572 µM (active)
